Results as given in patent publication US6914045B2, “Glycopeptide antibiotics” (Wyeth Holdings Corporation, priority 2001, dated 2005).
Values after ≈ are worked out from the molar mass of the structure shown.

Columns and labels:
Assay in all cases: in vitro antibacterial evaluation, MIC by broth dilution
Format in all cases: cell-based
[1] = system: Escherichia coli; details: 18 hours at 35° C.
[2] = system: Staphylococcus sp.; details: broth dilution, 18 hours at 35° C.
In short: (§1)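 MIC, the lowest antibiotic concentration preventing growth, was read across 64-0.06 μg/mL with 5×10^5 CFU/mL inoculum. Method followed NCCLS M7-A2 broth dilution using Mueller-Hinton II; Gram-positive strains covered recent methicillin-, penicillin- and/or vancomycin-resistant clinical isolates.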

[3] = system: Enterococcus sp.; details: broth dilution, 18 hours at 35° C.
In short: as §1

[4] = system: Streptococcus sp.; details: broth dilution, 18 hours at 35° C.
In short: as §1

MIC Escherichia coli (ATCC 25922) [1]: 32 µg/mL (≈ 22.8 µM)
MIC Escherichia coli (GC 4559) [1]: 32 µg/mL (≈ 22.8 µM)
MIC Escherichia coli (GC 4560) [1]: 1 µg/mL (≈ 0.713 µM)
MIC Staphylococcus aureus (ATCC 29213) ([2]; strain ATCC 29213): 1 µg/mL (≈ 0.713 µM)
MIC Staphylococcus aureus (GC 1131) ([2]; strain GC 1131): 1 µg/mL (≈ 0.713 µM)
MIC Staphylococcus aureus (GC 3051) ([2]; strain GC 3051): 1 µg/mL (≈ 0.713 µM)
MIC Staphylococcus aureus (GC 3053) ([2]; strain GC 3053): 1 µg/mL (≈ 0.713 µM)
MIC Staphylococcus aureus (GC 4541) ([2]; strain GC 4541): 1 µg/mL (≈ 0.713 µM)
MIC Staphylococcus aureus (GC 4542) ([2]; strain GC 4542): 1 µg/mL (≈ 0.713 µM)
MIC Staphylococcus aureus-SMITH (GC 4543) ([2]; strain GC 4543): 1 µg/mL (≈ 0.713 µM)
MIC Staphylococcus aureus (GC 4544) ([2]; strain GC 4544): 1 µg/mL (≈ 0.713 µM)
MIC Staphylococcus aureus (GC 4545) ([2]; strain GC 4545): 1 µg/mL (≈ 0.713 µM)
MIC Coagulase Negative Staphylococcus (GC 4547) ([2]; strain GC 4547): 1 µg/mL (≈ 0.713 µM)
MIC Coagulase Negative Staphylococcus (GC 4548) ([2]; strain GC 4548): 0.5 µg/mL (≈ 0.356 µM)
MIC Coagulase Negative Staphylococcus (GC 4549) ([2]; strain GC 4549): 0.5 µg/mL (≈ 0.356 µM)
MIC Coagulase Negative Staphylococcus (GC 4551) ([2]; strain GC 4551): 1 µg/mL (≈ 0.713 µM)
MIC Enterococcus avium (GC 4558) [3]: 2 µg/mL (≈ 1.43 µM)
MIC Enterococcus faecalis (ATCC 29212) [3]: 1 µg/mL (≈ 0.713 µM)
MIC Enterococcus faecalis (GC 2242) [3]: 2 µg/mL (≈ 1.43 µM)
MIC Enterococcus faecalis (GC 2691) [3]: 2 µg/mL (≈ 1.43 µM)
MIC Enterococcus faecalis (GC 3059) [3]: 1 µg/mL (≈ 0.713 µM)
MIC Enterococcus faecalis (GC 4552) [3]: 2 µg/mL (≈ 1.43 µM)
MIC Enterococcus faecalis (GC 4553) [3]: 2 µg/mL (≈ 1.43 µM)
MIC Enterococcus faecalis (GC 4554) [3]: 2 µg/mL (≈ 1.43 µM)
MIC Enterococcus faecalis (GC 6189) [3]: 1 µg/mL (≈ 0.713 µM)
MIC Enterococcus faecium (GC 2243) [3]: 2 µg/mL (≈ 1.43 µM)
MIC Enterococcus faecium (GC 4556) [3]: 1 µg/mL (≈ 0.713 µM)
MIC Enterococcus faecium (GC 4557) [3]: 2 µg/mL (≈ 1.43 µM)
MIC Enterococcus faecalis (ATCC 29212) ([3]; inoculum 5×10^5 CFU/mL, strain ATCC 29212): 1 µg/mL (≈ 0.713 µM)
MIC Enterococcus faecalis (GC 2242) ([3]; inoculum 5×10^5 CFU/mL, strain GC 2242): 2 µg/mL (≈ 1.43 µM)
MIC Enterococcus faecium (GC 2243) ([3]; inoculum 5×10^5 CFU/mL, strain GC 2243): 2 µg/mL (≈ 1.43 µM)
MIC Enterococcus faecalis (GC 2691) ([3]; inoculum 5×10^5 CFU/mL, strain GC 2691): 2 µg/mL (≈ 1.43 µM)
MIC Enterococcus faecalis (GC 3059) ([3]; inoculum 5×10^5 CFU/mL, strain GC 3059): 1 µg/mL (≈ 0.713 µM)
MIC Enterococcus faecalis (GC 4552) ([3]; inoculum 5×10^5 CFU/mL, strain GC 4552): 2 µg/mL (≈ 1.43 µM)
MIC Enterococcus faecalis (GC 4553) ([3]; inoculum 5×10^5 CFU/mL, strain GC 4553): 2 µg/mL (≈ 1.43 µM)
MIC Enterococcus faecalis (GC 4554) ([3]; inoculum 5×10^5 CFU/mL, strain GC 4554): 2 µg/mL (≈ 1.43 µM)
MIC Enterococcus faecium (GC 4556) ([3]; inoculum 5×10^5 CFU/mL, strain GC 4556): 1 µg/mL (≈ 0.713 µM)
MIC Enterococcus faecium (GC 4557) ([3]; inoculum 5×10^5 CFU/mL, strain GC 4557): 2 µg/mL (≈ 1.43 µM)
MIC Enterococcus avium (GC 4558) ([3]; inoculum 5×10^5 CFU/mL, strain GC 4558): 2 µg/mL (≈ 1.43 µM)
MIC Enterococcus faecalis (GC 6189) ([3]; inoculum 5×10^5 CFU/mL, strain GC 6189): 1 µg/mL (≈ 0.713 µM)
MIC Streptococcus agalactiae (GC 4564) [4]: 0.25 µg/mL (≈ 0.178 µM)
MIC Streptococcus pneumoniae (ATCC 6301) [4]: <0.12 µg/mL
MIC Streptococcus pneumoniae (GC 1894) [4]: <0.12 µg/mL
MIC Streptococcus pneumoniae (GC 4565) [4]: <0.12 µg/mL
MIC Streptococcus pyogenes (GC 4563) [4]: 1 µg/mL (≈ 0.713 µM)
MIC Streptococcus pneumoniae (ATCC 6301) ([4]; inoculum 5×10^5 CFU/mL, strain ATCC 6301): <0.12 µg/mL
MIC Streptococcus pneumoniae (GC 1894) ([4]; inoculum 5×10^5 CFU/mL, strain GC 1894): <0.12 µg/mL
MIC Streptococcus pyogenes (GC 4563) ([4]; inoculum 5×10^5 CFU/mL, strain GC 4563): 1 µg/mL (≈ 0.713 µM)
MIC Streptococcus agalactiae (GC 4564) ([4]; inoculum 5×10^5 CFU/mL, strain GC 4564): 0.25 µg/mL (≈ 0.178 µM)
MIC Streptococcus pneumoniae (GC 4565) ([4]; inoculum 5×10^5 CFU/mL, strain GC 4565): <0.12 µg/mL
SMILES: CC(c1ccccc1)C1NC(=O)CNC(=O)C(CO)NC(=O)C(C(O)C2CNC(=N)N2C2OC(CO)C(O)C(O)C2O)NC(=O)C(C(O)C2CNC(=N)N2)NC(=O)C(Cc2ccc(OC3OC(CO)C(OC4OC5COC6(OC5C(O)C4O)C(C)CCCC6C)C(O)C3O)cc2)NC1=O (stereo not drawn) [Example 206]
MIC Staphylococcus haemolyticus (GC 4546) ([2]; strain GC 4546): 0.5 µg/mL (≈ 0.356 µM)
